Patent publication US4260761A, “Intermediates for the preparation of octahydro-1H-benzo[4,5]furo[3,2,-e]-isoquinoline analgesic and narcotic antagonistic compounds” (priority 1980, dated 1981)

How the values were obtained:
Straub tail = Straub tail test (narcotic agonist effect), oral, mice; type: in vivo, mice (CF1 S female); details: tail erected 90° or more within 24 minutes
Method: Narcotic analgesics produce in mice an erection and arching of the tail (90° or more) which is referable to spinal cord stimulation. This Straub tail reaction is not produced by other analgesics, including the narcotic antagonists.
The method used was modified from Shemano, I., and Wendel, H., Tox. Appl. Pharm., 6, 334-9 (1964). CF1 S female mice (18-21 g), 10-20 mice per dose, were intubated with log scaled doses of analgesic in 1% aqueous methylcellulose. A positive Straub tail response was recorded if a tail was erected 90° or more for 5 seconds at any time within 24 minutes after dosing. A quantal Straub tail ED50 was calculated by the moving average method [Thompson, W. R., Bact. Rev., 11, 115-145 (1947)].
(§1) Most of the compounds were analgetic in the mouse antiphenylquinone test system and only a few caused Straub tail. Most also were antagonists in the mouse anti-Straub tail test.
(§2) On the other hand, the very high Straub tail ED50 's indicate that most of the compounds of the invention have very low likelihood of being addictive. […] Thus, the compounds of the invention are characterized by rapid onset of action, high oral potency and the ability to alleviate deepseated pain. Furthermore, abuse liability for most of the compounds should be extremely low or non-existent.

[1] = test system: phenylquinone-induced writhing; test: Phenylquinone writhing (PQW) analgesic test, oral, mice; type: in vivo, mice (female white); details: for EFFECT ED50, Oral Anti-PQW: mice, phenylquinone writhing
Method: A standard procedure for detecting and comparing the analgesic activity of compounds in this series for which there is good correlation with human efficacy is the standard phenylquinone writhing test modified from Siegmund, et al., Proc. Soc. Exp. Biol. Med., 95, 729 (1957). A test compound suspended in 1% methocel® was given orally to fasted (17-21 hours) female white mice, 5-20 animals per double blind test. Aqueous (0.01% phenyl-p-benzoquinone) phenylquinone was injected intraperitoneally at 24 minutes later using 0.20 ml per mouse. […] The effective analgesic dose for 50% of the mice (ED50) was calculated by the moving average method of Thompson, W. R., Bact. Rev., 11, 115-145 (1947).
as §1, §2

[2] = test system: morphine-induced Straub tail; test: Anti-Straub tail test (antagonism of morphine-induced Straub tail), mice; type: in vivo, mice (female CF1 S)
Method: This property is the basis of a mouse test for narcotic antagonists.
Female CF1 S mice (fasted 17-21 hrs.), 5 per dose, were injected orally or subcutaneously with test drug at 0.67, 2, 6, 18, 54 and 162 mg/kg or other appropriate doses in 0.20 ml 1% Methocel® per mouse. Five minutes later, 30 mg/kg of morphine sulfate in 0.20 ml 1% Methocel® per mouse was given intraperitoneally starting ten minutes later, the mice were observed continuously for 5 minutes for evidence of Straub tail. Prevention of a 90° Straub tail during this observation period was taken as indication of narcotic antagonist ability.
as §1, §2

opiate analgesics = details: background; cited from earlier work
[3] = background; cited from earlier work
[4] = Lasagna and Beecher 1954; cited from earlier work
[5] = test system: morphine-induced Straub tail; details: mice; Blumberg et al. 1968; cited from earlier work

SMILES: CN1CC[C@]23c4cccc(O)c4O[C@H]2CCC[C@H]3C1 (relative stereo) [Example 3, 3-Methyl-2,3,4,4aα,5,6,7,7aα-octahydro-1H-benzo[4,5]furo[3,2-e]isoquinolin-9-ol]
- ED50 (Straub tail; Mus musculus, 0.4 h): 135 mg/kg

SMILES: Oc1cccc2c1O[C@H]1CCC[C@H]3CN(CC4CC4)CC[C@@]231 (relative stereo) [Example 5, 3-Cyclopropylmethyl-2,3,4,4aα,5,6,7,7aα-octahydro-1H-benzo[4,5]furo[3,2-e]isoquinolin-9-ol]
- analgesic potency relative to morphine ([1]; mouse analgesia data): several times greater potency than morphine

SMILES: COc1cccc2c1O[C@H]1CCC[C@H]3CN(Cc4ccccc4)CC[C@@]231 (relative stereo) [Example 10, 3-Benzyl-9-methoxy-2,3,4,4aα,5,6,7,7aα-octahydro-1H-benzo[4,5]furo[3,2-e]isoquinoline]
- narcotic antagonism ([2]; mouse anti-Straub tail test): pure narcotic antagonists

SMILES: COc1cccc2c1O[C@H]1CCC[C@H]3CN(CC#N)CC[C@@]231 (relative stereo) [Example 20, 9-Methoxy-2,3,4,4aα,5,6,7,7aα-octahydro-1H-benzo[4,5]furo[3,2-e]isoquinoline-3-acetonitrile]
- ED50 ([2]; Mus musculus, sc, subcutaneous, mice, vs morphine sulfate 30 mg/kg i.p., read-out: EFFECT ED50, Anti-Straub Tail (s.c.)): 27 mg/kg

SMILES: CN1CCC23c4cccc(O)c4OC2CCCC3C1 (single isomer, unassigned) [Example 3 (+)isomer]
- EFFECT ED50, Oral Straub-Tail (Straub tail): > 135
- EFFECT ED50, Oral Anti-PQW ([1]; listed as 3 (+)isomer): 61
- EFFECT ED50, Anti-Straub Tail (s.c.) ([2]; subcutaneous, mice, vs morphine sulfate 30 mg/kg i.p., listed as 3 (+)isomer): 3.3

SMILES: CN1CCC23c4cccc(O)c4OC2CCCC3C1 (single isomer, unassigned) [Example 3 (-) isomer]
- EFFECT ED50, Oral Straub-Tail (Straub tail): > 135
- EFFECT ED50, Oral Anti-PQW ([1]; listed as 3 (-) isomer): 2.1
- EFFECT ED50, Anti-Straub Tail (s.c.) ([2]; subcutaneous, mice, vs morphine sulfate 30 mg/kg i.p., listed as 3 (-) isomer): 0.14

SMILES: CN1CC[C@]23c4c5ccc(O)c4O[C@H]2[C@@H](O)C=C[C@H]3[C@H]1C5 [Morphine]
- EFFECT ED50, Oral Straub-Tail (Straub tail): 48
- EFFECT ED50, Oral Anti-PQW [1]: 3.0

SMILES: C=CCN1CC[C@]23CCCC[C@H]2[C@H]1Cc1ccc(O)cc13 [levallorphan]
- antagonism of opiate analgesics (opiate analgesics): effectively antagonize overdoses of the opiate analgesics
- intrinsic analgesic activity [3]: some analgesic effects by themselves

SMILES: C=CCN1CC[C@]23c4c5ccc(O)c4O[C@H]2[C@@H](O)C=C[C@H]3[C@H]1C5 [nalorphine]
- antagonism of opiate analgesics (opiate analgesics): effectively antagonize overdoses of the opiate analgesics
- intrinsic analgesic activity [3]: some analgesic effects by themselves
- analgetic properties in man [4]: also has analgetic properties in man
- prevention of morphine-induced Straub tail [5]: prevent the induction of Straub tail in mice

SMILES: C=CCN1CC[C@]23c4c5ccc(O)c4O[C@H]2C(=O)CC[C@@]3(O)[C@H]1C5 [naloxone]
- antagonism of emetic effect of meperidine (opiate analgesics): antagonizes the emetic effect of meperidine
- antagonism of opiate analgesics (opiate analgesics): effectively antagonize overdoses of the opiate analgesics
- prevention of morphine-induced Straub tail [5]: prevent the induction of Straub tail in mice
